Data as given in patent publication US7008905B2, “Method of combating undesired plant growth on cereals” (BASF Aktiengesellschaft, priority 2000, dated 2006).

Tests used:
Assay type in all cases: in vivo
[1] = system: grasses and broadleaf weeds; test: Pre-emergence test, overall weed control
Method: (§1) The pre-emergence tests involve spraying a liquid formulation of the compound onto the soil in which the seeds of the plant species mentioned above has recently been sown.
(§2) The soil used in the tests is a prepared horticultural loam. The formulations used in the tests are prepared from solutions of the test compounds in acetone containing 0.4% by weight of an alkylphenol/ethylene oxide condensate available under the trade mark TRITON X-155.
(§3) These acetone solutions are diluted with water and the resulting formulations applied at dosage levels corresponding to 15 g, 30 g, 60 g, 120 g or 240 g of active material per hectare in a volume equivalent to 900 liters per hectare. In these tests untreated sown soil is used as control. The herbicidal effects of the test compounds are assessed visually three weeks after spraying the soil and are recorded an a 0 to 100 scale. A rating 0 indicates growth as untreated control, a rating 100 indicates death. An increase of 10 unit an the linear scale approximates to a 10% increase in the level of effect. The results of the assessment are set out in Tables 1 to 4.

Veronica persica = test: Pre-emergence test, weed control; settings: 3 weeks after treatment, rating 0-100 (100=death), Table 3
Method: as §1, §2
(§4) In these tests untreated sown soil is used as control. The herbicidal effects of the test compounds are assessed visually three weeks after spraying the soil and are recorded an a 0 to 100 scale. A rating 0 indicates growth as untreated control, a rating 100 indicates death. An increase of 10 unit an the linear scale approximates to a 10% increase in the level of effect. The results of the assessment are set out in Tables 1 to 4.

Apera spica-venti = test: Pre-emergence test, weed control; settings: 3 weeks after treatment, rating 0-100 (100=death), Table 3
Method: as §1, §2, §4

Poa annua = test: Pre-emergence test, weed control; settings: 3 weeks after treatment, rating 0-100 (100=death), Table 3
Method: as §1, §2, §4

Setaria viridis = test: Pre-emergence test, weed control; settings: 3 weeks after treatment, rating 0-100 (100=death), Table 3
Method: as §1, §2, §4

Alopecurus myosuroides = test: Pre-emergence test, weed control; settings: 3 weeks after treatment, rating 0-100 (100=death), Table 3
Method: as §1, §2, §4

Stellaria media = test: Pre-emergence test, weed control; settings: 3 weeks after treatment, rating 0-100 (100=death), Table 3
Method: as §1, §2, §4

Lolium perenne = test: Pre-emergence test, weed control; settings: 3 weeks after treatment, rating 0-100 (100=death), Table 3
Method: as §1, §2, §4

Lamium purpureum = test: Pre-emergence test, weed control; settings: 3 weeks after treatment, rating 0-100 (100=death), Table 3
Method: as §1, §2, §4

Galium aparine = test: Pre-emergence test, weed control; settings: 3 weeks after treatment, rating 0-100 (100=death), Table 3
Method: as §1, §2, §4

Matricaria inodora = test: Pre-emergence test, weed control; settings: 3 weeks after treatment, rating 0-100 (100=death), Table 3
Method: as §1, §2, §4

VIOAR = test: Pre-emergence test, weed control; settings: 3 weeks after treatment, rating 0-100 (100=death), Table 3
Method: as §1, §2, §3

PAPRH = test: Pre-emergence test, weed control; settings: 3 weeks after treatment, rating 0-100 (100=death), Table 3
Method: as §1, §2, §3

[2] = system: Triticum aestivum variety “Monopol”; test: Pre-emergence test, selectivity; settings: 3 weeks after treatment, rating 0-100 (100=death), Table 4
Method: as §1, §2, §3

[3] = system: Triticum aestivum variety “Kanzler”; test: Pre-emergence test, selectivity; settings: 3 weeks after treatment, rating 0-100 (100=death), Table 4
Method: as §1, §2, §3

wheat = test: Pre-emergence test, tolerance in wheat
Method: as §1, §2, §3

FC(F)(F)c1ccc(-c2nccc(Oc3ccnc(Cl)c3)n2)cc1 [CTP, 4-(2-chloropyrid-4-yloxy)-2-(4-trifluoromethyl-phenyl)pyrimidine]
dose at which complete control of all the grasses and broadleaf weeds was achieved [1]: 120 g/ha
VERPE weed control rating (Veronica persica; 0.030 kg/ha): 100
VERPE weed control rating (Veronica persica; 0.060 kg/ha): 100
VERPE weed control rating (Veronica persica; 0.120 kg/ha): 100
VERPE weed control rating (Veronica persica; 0.240 kg/ha): 100
APESV weed control rating (Apera spica-venti; 0.030 kg/ha): 100
APESV weed control rating (Apera spica-venti; 0.060 kg/ha): 100
APESV weed control rating (Apera spica-venti; 0.120 kg/ha): 100
APESV weed control rating (Apera spica-venti; 0.240 kg/ha): 100
POAAN weed control rating (Poa annua; 0.030 kg/ha): 100
POAAN weed control rating (Poa annua; 0.060 kg/ha): 100
POAAN weed control rating (Poa annua; 0.120 kg/ha): 100
POAAN weed control rating (Poa annua; 0.240 kg/ha): 100
SETVI weed control rating (Setaria viridis; 0.030 kg/ha): 98
SETVI weed control rating (Setaria viridis; 0.060 kg/ha): 100
SETVI weed control rating (Setaria viridis; 0.120 kg/ha): 100
SETVI weed control rating (Setaria viridis; 0.240 kg/ha): 100
ALOMY weed control rating (Alopecurus myosuroides; 0.030 kg/ha): 15
ALOMY weed control rating (Alopecurus myosuroides; 0.060 kg/ha): 35
ALOMY weed control rating (Alopecurus myosuroides; 0.120 kg/ha): 99
ALOMY weed control rating (Alopecurus myosuroides; 0.240 kg/ha): 100
STEME weed control rating (Stellaria media; 0.030 kg/ha): 80
STEME weed control rating (Stellaria media; 0.060 kg/ha): 100
STEME weed control rating (Stellaria media; 0.120 kg/ha): 100
STEME weed control rating (Stellaria media; 0.240 kg/ha): 100
LOLPE weed control rating (Lolium perenne; 0.030 kg/ha): 93
LOLPE weed control rating (Lolium perenne; 0.060 kg/ha): 95
LOLPE weed control rating (Lolium perenne; 0.120 kg/ha): 98
LOLPE weed control rating (Lolium perenne; 0.240 kg/ha): 100
LAMPU weed control rating (Lamium purpureum; 0.030 kg/ha): 90
LAMPU weed control rating (Lamium purpureum; 0.060 kg/ha): 100
LAMPU weed control rating (Lamium purpureum; 0.120 kg/ha): 100
LAMPU weed control rating (Lamium purpureum; 0.240 kg/ha): 100
GALAP weed control rating (Galium aparine; 0.030 kg/ha): 10
GALAP weed control rating (Galium aparine; 0.060 kg/ha): 65
GALAP weed control rating (Galium aparine; 0.120 kg/ha): 93
GALAP weed control rating (Galium aparine; 0.240 kg/ha): 95
MATIN weed control rating (Matricaria inodora; 0.030 kg/ha): 98
MATIN weed control rating (Matricaria inodora; 0.060 kg/ha): 99
MATIN weed control rating (Matricaria inodora; 0.120 kg/ha): 99
MATIN weed control rating (Matricaria inodora; 0.240 kg/ha): 100
VIOAR weed control rating (VIOAR; 0.030 kg/ha): 99
VIOAR weed control rating (VIOAR; 0.060 kg/ha): 100
VIOAR weed control rating (VIOAR; 0.120 kg/ha): 100
VIOAR weed control rating (VIOAR; 0.240 kg/ha): 100
PAPRH weed control rating (PAPRH; 0.030 kg/ha): 100
PAPRH weed control rating (PAPRH; 0.060 kg/ha): 100
PAPRH weed control rating (PAPRH; 0.120 kg/ha): 100
PAPRH weed control rating (PAPRH; 0.240 kg/ha): 100
TRZAWM rating (Selectivity) ([2]; 0.060 kg/ha): 1
TRZAWM rating (Selectivity) ([2]; 0.120 kg/ha): 2
TRZAWM rating (Selectivity) ([2]; 0.240 kg/ha): 5
TRZAWK rating (Selectivity) ([3]; 0.120 kg/ha): 1
TRZAWK rating (Selectivity) ([3]; 0.240 kg/ha): 5
maximum tolerated dose in wheat / dose at which sufficiently selective in wheat (wheat; pre-emergence): 240 g/ha

COc1cnc(-c2ccc(C(F)(F)F)cc2)nc1Oc1ccnc(Cl)c1 [REF-8]
VERPE weed control rating (Veronica persica; 0.030 kg/ha): 100
VERPE weed control rating (Veronica persica; 0.060 kg/ha): 100
VERPE weed control rating (Veronica persica; 0.120 kg/ha): 100
VERPE weed control rating (Veronica persica; 0.240 kg/ha): 100
APESV weed control rating (Apera spica-venti; 0.030 kg/ha): 100
APESV weed control rating (Apera spica-venti; 0.060 kg/ha): 100
APESV weed control rating (Apera spica-venti; 0.120 kg/ha): 100
APESV weed control rating (Apera spica-venti; 0.240 kg/ha): 100
POAAN weed control rating (Poa annua; 0.030 kg/ha): 100
POAAN weed control rating (Poa annua; 0.060 kg/ha): 100
POAAN weed control rating (Poa annua; 0.120 kg/ha): 100
POAAN weed control rating (Poa annua; 0.240 kg/ha): 100
SETVI weed control rating (Setaria viridis; 0.030 kg/ha): 60
SETVI weed control rating (Setaria viridis; 0.060 kg/ha): 90
SETVI weed control rating (Setaria viridis; 0.120 kg/ha): 90
SETVI weed control rating (Setaria viridis; 0.240 kg/ha): 100
ALOMY weed control rating (Alopecurus myosuroides; 0.030 kg/ha): 15
ALOMY weed control rating (Alopecurus myosuroides; 0.060 kg/ha): 35
ALOMY weed control rating (Alopecurus myosuroides; 0.120 kg/ha): 70
ALOMY weed control rating (Alopecurus myosuroides; 0.240 kg/ha): 90
STEME weed control rating (Stellaria media; 0.030 kg/ha): 35
STEME weed control rating (Stellaria media; 0.060 kg/ha): 85
STEME weed control rating (Stellaria media; 0.120 kg/ha): 100
STEME weed control rating (Stellaria media; 0.240 kg/ha): 100
LOLPE weed control rating (Lolium perenne; 0.030 kg/ha): 60
LOLPE weed control rating (Lolium perenne; 0.060 kg/ha): 97
LOLPE weed control rating (Lolium perenne; 0.120 kg/ha): 99
LOLPE weed control rating (Lolium perenne; 0.240 kg/ha): 99
LAMPU weed control rating (Lamium purpureum; 0.030 kg/ha): 98
LAMPU weed control rating (Lamium purpureum; 0.060 kg/ha): 100
LAMPU weed control rating (Lamium purpureum; 0.120 kg/ha): 100
LAMPU weed control rating (Lamium purpureum; 0.240 kg/ha): 100
GALAP weed control rating (Galium aparine; 0.030 kg/ha): 3
GALAP weed control rating (Galium aparine; 0.120 kg/ha): 70
GALAP weed control rating (Galium aparine; 0.240 kg/ha): 70
MATIN weed control rating (Matricaria inodora; 0.030 kg/ha): 95
MATIN weed control rating (Matricaria inodora; 0.060 kg/ha): 100
MATIN weed control rating (Matricaria inodora; 0.120 kg/ha): 100
MATIN weed control rating (Matricaria inodora; 0.240 kg/ha): 100
VIOAR weed control rating (VIOAR; 0.030 kg/ha): 99
VIOAR weed control rating (VIOAR; 0.060 kg/ha): 99
VIOAR weed control rating (VIOAR; 0.120 kg/ha): 100
VIOAR weed control rating (VIOAR; 0.240 kg/ha): 100
PAPRH weed control rating (PAPRH; 0.030 kg/ha): 100
PAPRH weed control rating (PAPRH; 0.060 kg/ha): 100
PAPRH weed control rating (PAPRH; 0.120 kg/ha): 100
PAPRH weed control rating (PAPRH; 0.240 kg/ha): 100
TRZAWM rating (Selectivity) ([2]; 0.030 kg/ha): 1
TRZAWM rating (Selectivity) ([2]; 0.060 kg/ha): 3
TRZAWM rating (Selectivity) ([2]; 0.120 kg/ha): 15
TRZAWM rating (Selectivity) ([2]; 0.240 kg/ha): 18
TRZAWK rating (Selectivity) ([3]; 0.030 kg/ha): 1
TRZAWK rating (Selectivity) ([3]; 0.060 kg/ha): 5
TRZAWK rating (Selectivity) ([3]; 0.120 kg/ha): 12
TRZAWK rating (Selectivity) ([3]; 0.240 kg/ha): 18
maximum tolerated dose in wheat / dose at which sufficiently selective in wheat (wheat; in vivo): 120 g/ha
